Data published in ChEMBL document CHEMBL1201861, “Genomics of Drug Sensitity in Cancer screening data, Wellcome Trust Sanger Institute”.
“And” between values parts separate entries of the source, which are not always exact repeats. Identical values can stand only once.

Legend:
Experiment in all cases: cells
COLO-800 = assay type: functional, cell-based, Homo sapiens
Description: SANGER: Inhibition of human COLO-800 cell growth in a cell viability assay.

COLO-829 = assay type: functional, cell-based, Homo sapiens
Description: SANGER: Inhibition of human COLO-829 cell growth in a cell viability assay.

Ca9-22 = assay type: functional, cell-based, Homo sapiens
Description: SANGER: Inhibition of human Ca9-22 cell growth in a cell viability assay.

Capan-2 = assay type: functional, cell-based, Homo sapiens
Description: SANGER: Inhibition of human Capan-2 cell growth in a cell viability assay.

DJM-1 = assay type: functional, cell-based, Homo sapiens
Description: SANGER: Inhibition of human DJM-1 cell growth in a cell viability assay.

DU-4475 = assay type: functional, cell-based; settings: Homo sapiens
Description: SANGER: Inhibition of human DU-4475 cell growth in a cell viability assay.

EFM-19 = assay type: functional, cell-based, Homo sapiens
Description: SANGER: Inhibition of human EFM-19 cell growth in a cell viability assay.

ES6 = assay type: functional, cell-based, Homo sapiens
Description: SANGER: Inhibition of human ES6 cell growth in a cell viability assay.

GAMG = assay type: functional, cell-based, Homo sapiens
Description: SANGER: Inhibition of human GAMG cell growth in a cell viability assay.

HCC1419 = assay type: functional, cell-based, Homo sapiens
Description: SANGER: Inhibition of human HCC1419 cell growth in a cell viability assay.

HCE-T = assay type: functional, cell-based, Homo sapiens
Description: SANGER: Inhibition of human HCE-T cell growth in a cell viability assay.

KYSE-520 cell line = assay type: functional, cell-based, Homo sapiens
Description: SANGER: Inhibition of human KYSE-520 cell growth in a cell viability assay.

LB2241-RCC = assay type: functional, cell-based, Homo sapiens
Description: SANGER: Inhibition of human LB2241-RCC cell growth in a cell viability assay.

LN-405 = assay type: functional, cell-based, Homo sapiens
Description: SANGER: Inhibition of human LN-405 cell growth in a cell viability assay.

LNCaP-Clone-FGC = assay type: functional, cell-based, Homo sapiens
Description: SANGER: Inhibition of human LNCaP-Clone-FGC cell growth in a cell viability assay.

LS-123 = assay type: functional, cell-based, Homo sapiens
Description: SANGER: Inhibition of human LS-123 cell growth in a cell viability assay.

M059J = assay type: functional, cell-based, Homo sapiens
Description: SANGER: Inhibition of human M059J cell growth in a cell viability assay.

MDA-MB-157 = assay type: functional, cell-based, Homo sapiens
Description: SANGER: Inhibition of human MDA-MB-157 cell growth in a cell viability assay.

MIA PaCa-2 = assay type: functional, cell-based, Homo sapiens
Description: SANGER: Inhibition of human MIA-PaCa-2 cell growth in a cell viability assay.

MeWo = assay type: functional, cell-based, Homo sapiens
Description: SANGER: Inhibition of human Mewo cell growth in a cell viability assay.

NCI-H1437 = assay type: functional, cell-based, Homo sapiens
Description: SANGER: Inhibition of human NCI-H1437 cell growth in a cell viability assay.

NCI-H1793 = assay type: functional, cell-based, Homo sapiens
Description: SANGER: Inhibition of human NCI-H1793 cell growth in a cell viability assay.

NCI-H226 = assay type: functional, cell-based, Homo sapiens
Description: SANGER: Inhibition of human NCI-H226 cell growth in a cell viability assay.

NCI-H2452 = assay type: functional, cell-based, Homo sapiens
Description: SANGER: Inhibition of human NCI-H2452 cell growth in a cell viability assay.

NCI-H510A = assay type: functional, cell-based; settings: Homo sapiens
Description: SANGER: Inhibition of human NCI-H510A cell growth in a cell viability assay.

OCUB-M = assay type: functional, cell-based, Homo sapiens
Description: SANGER: Inhibition of human OCUB-M cell growth in a cell viability assay.

OE33 = assay type: functional, cell-based, Homo sapiens
Description: SANGER: Inhibition of human OE33 cell growth in a cell viability assay.

OS-RC-2 = assay type: functional, cell-based, Homo sapiens
Description: SANGER: Inhibition of human OS-RC-2 cell growth in a cell viability assay.

OVCAR-3 = assay type: functional, cell-based, Homo sapiens
Description: SANGER: Inhibition of human OVCAR-3 cell growth in a cell viability assay.

PANC-08-13 = assay type: functional, cell-based, Homo sapiens
Description: SANGER: Inhibition of human PANC-08-13 cell growth in a cell viability assay.

Panc1005 = assay type: functional, cell-based, Homo sapiens
Description: SANGER: Inhibition of human PANC-10-05 cell growth in a cell viability assay.

PC-3 = assay type: functional, cell-based, Homo sapiens
Description: SANGER: Inhibition of human PC-3 cell growth in a cell viability assay.

RD = assay type: functional, cell-based, Homo sapiens
Description: SANGER: Inhibition of human RD cell growth in a cell viability assay.

RO82-W-1 = assay type: functional, cell-based, Homo sapiens
Description: SANGER: Inhibition of human RO82-W-1 cell growth in a cell viability assay.

SF-295 = assay type: functional, cell-based, Homo sapiens; settings: read-out: IC50
Description: SANGER: Inhibition of human SF295 cell growth in a cell viability assay.

SJSA-1 = assay type: functional, cell-based, Homo sapiens
Description: SANGER: Inhibition of human SJSA-1 cell growth in a cell viability assay.

SK-N-DZ = assay type: functional, cell-based, Homo sapiens
Description: SANGER: Inhibition of human SK-N-DZ cell growth in a cell viability assay.

SNB-75 = assay type: functional, cell-based, Homo sapiens
Description: SANGER: Inhibition of human SNB75 cell growth in a cell viability assay.

SW837 = assay type: functional, cell-based, Homo sapiens
Description: SANGER: Inhibition of human SW837 cell growth in a cell viability assay.

TE-1 = assay type: functional, cell-based, Homo sapiens
Description: SANGER: Inhibition of human TE-1 cell growth in a cell viability assay.

BB65-RCC = assay type: functional, cell-based, Homo sapiens
Description: SANGER: Inhibition of human BB65-RCC cell growth in a cell viability assay.

C2BBe1 = assay type: functional, cell-based, Homo sapiens
Description: SANGER: Inhibition of human C2BBe1 cell growth in a cell viability assay.

C32 = assay type: functional, cell-based, Homo sapiens
Description: SANGER: Inhibition of human C32 cell growth in a cell viability assay.

CAL-39 = assay type: functional, cell-based, Homo sapiens
Description: SANGER: Inhibition of human CAL-39 cell growth in a cell viability assay.

TE-8 = assay type: functional, cell-based, Homo sapiens
Description: SANGER: Inhibition of human TE-8 cell growth in a cell viability assay.

U2OS = assay type: functional, cell-based, Homo sapiens, U-2-OS
Description: SANGER: Inhibition of human U-2-OS cell growth in a cell viability assay.

UACC-62 = assay type: functional, cell-based, Homo sapiens
Description: SANGER: Inhibition of human UACC-62 cell growth in a cell viability assay.

COLO-678 = assay type: functional, cell-based, Homo sapiens
Description: SANGER: Inhibition of human COLO-678 cell growth in a cell viability assay.

## Cc1cc([C@@H](C)Nc2ccccc2C(=O)O)c2nc(N3CCOCC3)cc(=O)n2c1 [AZD-6482]
COLO-800; colo-800
  IC50: > 5.12 µM
COLO-829; colo-829
  IC50: > 5.12 µM
Ca9-22; ca9-22
  IC50: > 5.12 µM
Capan-2; capan-2
  IC50: > 5.12 µM
DJM-1; djm-1
  IC50: > 5.12 µM
DU-4475
  IC50: > 5.12 µM
EFM-19; efm-19
  IC50: > 5.12 µM
ES6; Homo sapiens, ES6
  IC50: > 5.12 µM
ES6; es6
  IC50: > 5.12 µM
GAMG; gamg
  IC50: 4.43 µM and 1.01 µM
HCC1419; hcc1419
  IC50: > 5.12 µM
HCE-T; hce-t
  IC50: > 5.12 µM and 2.09 µM
KYSE-520 cell line; Homo sapiens, KYSE-520
  IC50: > 5.12 µM
KYSE-520 cell line; kyse-520
  IC50: > 5.12 µM
LB2241-RCC; lb2241-rcc
  IC50: > 5.12 µM and 1.32 µM
LN-405; Homo sapiens, LN-405
  IC50: 2.44 µM
LN-405; ln-405
  IC50: 2.9 µM
LNCaP-Clone-FGC; Homo sapiens, LNCaP-Clone-FGC
  IC50: 1.52 µM
LNCaP-Clone-FGC; lncap-clone-fgc
  IC50: 2.41 µM
LS-123; ls-123
  IC50: > 5.12 µM
M059J; Homo sapiens, M059J
  IC50: > 5.12 µM
M059J; m059j
  IC50: > 5.12 µM
MDA-MB-157; mda-mb-157
  IC50: > 5.12 µM
MIA PaCa-2; mia paca-2
  IC50: > 5.12 µM
MeWo; mewo
  IC50: > 5.12 µM and 3.17 µM
NCI-H1437; nci-h1437
  IC50: > 5.12 µM
NCI-H1793; nci-h1793
  IC50: > 5.12 µM
NCI-H226; Homo sapiens, NCI-H226
  IC50: > 5.12 µM
NCI-H226; nci-h226
  IC50: > 5.12 µM
NCI-H2452; nci-h2452
  IC50: > 5.12 µM
NCI-H510A
  IC50: > 5.12 µM
OCUB-M; ocub-m
  IC50: 1.58 µM and 0.728 µM
OE33; oe33
  IC50: > 5.12 µM
OS-RC-2; os-rc-2
  IC50: 0.624 µM and > 5.12 µM
OVCAR-3; ovcar-3
  IC50: 0.679 µM and 3.92 µM
PANC-08-13; panc-08-13
  IC50: > 5.12 µM
Panc1005; panc1005
  IC50: 2.1 µM and > 5.12 µM
PC-3; pc-3
  IC50: > 5.12 µM
RD; Homo sapiens, RD
  IC50: > 5.12 µM
RD; rd
  IC50: > 5.12 µM
RO82-W-1; ro82-w-1
  IC50: > 5.12 µM
SF-295; sf-295
  IC50: 2.77 µM and > 5.12 µM
SJSA-1; Homo sapiens, SJSA-1
  IC50: > 5.12 µM
SJSA-1; sjsa-1
  IC50: > 5.12 µM
SK-N-DZ; sk-n-dz
  IC50: > 5.12 µM and 2.32 µM
SNB-75; Homo sapiens, SNB-75
  IC50: 1.67 µM
SNB-75; snb-75
  IC50: 3.15 µM
SW837; sw837
  IC50: > 5.12 µM
TE-1; Homo sapiens, TE-1
  IC50: > 5.12 µM
TE-1; te-1
  IC50: > 5.12 µM
BB65-RCC; Homo sapiens, BB65-RCC
  IC50: > 5.12 µM
BB65-RCC; bb65-rcc
  IC50: > 5.12 µM
C2BBe1; Homo sapiens, C2BBe1
  IC50: > 5.12 µM
C2BBe1; c2bbe1
  IC50: > 5.12 µM
C32; c32
  IC50: > 5.12 µM
CAL-39; cal-39
  IC50: 2 µM and > 5.12 µM
TE-8; te-8
  IC50: > 5.12 µM
U2OS; u-2-os
  IC50: > 5.12 µM and 4.6 µM
UACC-62; uacc-62
  IC50: > 5.12 µM and 2.03 µM
COLO-678; colo-678
  IC50: > 5.12 µM

## Nc1ccn([C@@H]2O[C@H](CO)[C@@H](O)[C@@H]2O)c(=O)n1 [CYTARABINE]
COLO-800; Homo sapiens, COLO-800
  IC50: 0.425 µM
COLO-829; Homo sapiens, COLO-829
  IC50: 1.86 µM
Ca9-22; Homo sapiens, Ca9-22
  IC50: 0.321 µM
Capan-2; Homo sapiens, Capan-2
  IC50: > 2 µM
DJM-1; Homo sapiens, DJM-1
  IC50: > 2 µM
DU-4475
  IC50: 0.575 µM
EFM-19; Homo sapiens, EFM-19
  IC50: > 2 µM
ES6; Homo sapiens, ES6
  IC50: 0.721 µM
GAMG; Homo sapiens, GAMG
  IC50: 0.394 µM
HCC1419; Homo sapiens, HCC1419
  IC50: > 2 µM
HCE-T; Homo sapiens, HCE-T
  IC50: > 2 µM
KYSE-520 cell line; Homo sapiens, KYSE-520
  IC50: > 2 µM
LB2241-RCC; Homo sapiens, LB2241-RCC
  IC50: 0.0553 µM
LN-405; Homo sapiens, LN-405
  IC50: > 2 µM
LNCaP-Clone-FGC; Homo sapiens, LNCaP-Clone-FGC
  IC50: 1.31 µM
LS-123; Homo sapiens, LS-123
  IC50: > 2 µM
M059J; Homo sapiens, M059J
  IC50: 1.82 µM
MDA-MB-157; Homo sapiens, MDA-MB-157
  IC50: 1.39 µM
MIA PaCa-2; Homo sapiens, MIA PaCa-2
  IC50: 1.49 µM
MeWo; Homo sapiens, MeWo
  IC50: 1.24 µM
NCI-H1437; Homo sapiens, NCI-H1437
  IC50: 0.798 µM
NCI-H1793; Homo sapiens, NCI-H1793
  IC50: > 2 µM
NCI-H226; Homo sapiens, NCI-H226
  IC50: > 2 µM
NCI-H2452; Homo sapiens, NCI-H2452
  IC50: > 2 µM
NCI-H510A
  IC50: 0.0683 µM
OCUB-M; Homo sapiens, OCUB-M
  IC50: > 2 µM
OE33; Homo sapiens, OE33
  IC50: 1.8 µM
OS-RC-2; Homo sapiens, OS-RC-2
  IC50: 1.58 µM
OVCAR-3; Homo sapiens, OVCAR-3
  IC50: > 2 µM
PANC-08-13; Homo sapiens, PANC-08-13
  IC50: > 2 µM
Panc1005; Homo sapiens, Panc1005
  IC50: 0.802 µM
PC-3; Homo sapiens, PC-3
  IC50: 1.28 µM
RD; Homo sapiens, RD
  IC50: 1.27 µM
RO82-W-1; Homo sapiens, RO82-W-1
  IC50: > 2 µM
SF-295; Homo sapiens, SF-295
  IC50: > 2 µM
SJSA-1; Homo sapiens, SJSA-1
  IC50: 0.235 µM
SK-N-DZ; Homo sapiens, SK-N-DZ
  IC50: 1.07 µM
SNB-75; Homo sapiens, SNB-75
  IC50: > 2 µM
SW837; Homo sapiens, SW837
  IC50: > 2 µM
TE-1; Homo sapiens, TE-1
  IC50: > 2 µM
BB65-RCC; Homo sapiens, BB65-RCC
  IC50: 0.11 µM
C2BBe1; Homo sapiens, C2BBe1
  IC50: 0.166 µM
C32; Homo sapiens, C32
  IC50: > 2 µM
CAL-39; Homo sapiens, CAL-39
  IC50: 0.998 µM
TE-8; Homo sapiens, TE-8
  IC50: 0.219 µM
U2OS; Homo sapiens, U2OS
  IC50: 0.344 µM
UACC-62; Homo sapiens, UACC-62
  IC50: 0.666 µM
COLO-678; Homo sapiens, COLO-678
  IC50: > 2 µM
